Assay results reported in patent publication US7709463B2, “Idraparinux (SanOrg34006) for treatment of venous events in patients with deep venous thrombosis” (Sanofi-Aventis, priority 2002, dated 2010).

Experiments:
Type in all cases: in vivo, human
[1] = system: patients with confirmed symptomatic proximal DVT; test: Bleeding events during randomized treatment, phase II study
Excerpt: (§1) The study design is illustrated in FIG. 1.
(§2) Each treatment group was to consist of 130 patients, of which at least 100 patients eligible for inclusion in the Intent-To-Treat (ITT) group. Subjects in the SanOrg34006 treatment groups were to be followed-up during a four-week period after the final assessments.
Primary safety parameters: incidence of major bleeding and decreased platelet count.

[2] = system: patients with confirmed symptomatic proximal DVT; test: Tolerability: adverse events, laboratory parameters, vital signs, phase II study
Excerpt: as §1, §2
Secondary efficacy parameters: (serious) adverse events, laboratory parameters (hematology, biochemistry, coagulation status, platelet counts), and vital signs (blood pressure, heart rate, body weight).

[3] = system: patients with confirmed symptomatic proximal DVT; test: Composite clinical outcome assessed by CAC (recurrent DVT, symptomatic PE or unexplained death), phase II study
Excerpt: as §1, §2
(§3) Secondary efficacy parameters: change in thrombotic burden using a binary scale (i.e. deterioration versus no deterioration); change of CUS on a 3-point ordinal scale; change of PLS on a 3-point ordinal scale; the composite clinical outcome (non-fatal symptomatic PE and/or recurrent DVT, death due to PE and/or DVT or unexplained, and any important change in therapeutic management of thrombotic events); coagulation markers: plasma D-dimer (fibrin fragment, released in process of thrombolysis; measure for ongoing thrombosis) and TAT (Thrombin-Antithrombin Complex) concentrations during the study treatment. • Safety

[4] = Plasma concentrations / population pharmacokinetics of SanOrg34006, phase II study
Experimental: The secondary objective was to assess population pharmacokinetics of SanOrg34006.
Plasma concentrations of SanOrg34006 were assessed within 48 h prior to the administration of SanOrg34006 in Weeks 2, 4 and 7. In addition during Week 7 within the time frames 0.5-2 h, 2-6 h, 6-48 h and 120-168 h post dose. In a subset of patients a more extensive sampling scheme was applied with pre-dose samples before each administration and the serial scheme for Week 7 also applied to Week 1 and 12.

[5] = system: patients with confirmed symptomatic proximal DVT; test: Change in thrombotic burden assessed by central adjudication committee (CUS and PLS vs baseline), phase II study
Excerpt: as §1, §2
Primary efficacy parameter: change in thrombotic burden as assessed by the central adjudication committee using a 3-point ordinal outcome scale for the comparison of CUS and PLS (Perfusion Lung Scan) after 12 weeks of randomized treatment with baseline measurements (i.e. deterioration, normalization, or no relevant change) including a supplementary analysis on substantial improvement.
as §3

[6] = SanOrg34006 2.5 mg SC once weekly, 12 weeks, ITT (N = 125)
[7] = SanOrg34006 5 mg SC once weekly, 12 weeks, ITT (N = 128)
[8] = SanOrg34006 7.5 mg SC once weekly, 12 weeks, ITT (N = 118)
[9] = SanOrg34006 10 mg SC once weekly, 12 weeks, ITT (N = 119)
[10] = Week 12 vs first administration
[11] = oral warfarin, all patients with randomized treatment (N = 132)
[12] = oral warfarin, 12-week course, ITT (N = 124)

## CO[C@H]1O[C@H](COS(=O)(=O)O)[C@@H](O[C@@H]2O[C@@H](C(=O)O)[C@@H](O[C@H]3O[C@H](COS(=O)(=O)O)[C@@H](O[C@@H]4O[C@H](C(=O)O)[C@@H](O[C@H]5O[C@H](COS(=O)(=O)O)[C@@H](OC)[C@H](OC)[C@H]5OC)[C@H](OC)[C@H]4OC)[C@H](OS(=O)(=O)O)[C@H]3OS(=O)(=O)O)[C@H](OC)[C@H]2OC)[C@H](OS(=O)(=O)O)[C@H]1OS(=O)(=O)O [SanOrg34006, methyl O-(2,3,4-tri-O-methyl-6-O-sulfo-α-D-glucopyranosyl)-(1→4)-O-(2,3-di-O-methyl-β-D-glucopyranosyluronic acid)-(1→4)-O-(2,3,6-tri-O-sulfo-α-D-glucopyranosyl)-(1→4)-O-(2,3-di-O-methyl-α-L-idopyranosyluronic acid)-(1→4)-2,3,6-tri-O-sulfo-α-D-glucopyranoside]
[1]; in vivo
  dose group outcome under stopping rule for major bleedings: prematurely discontinued
[2]; in vivo
  tolerability in terms of adverse events (other than bleeding events), laboratory parameters, and vital signs: generally well tolerated
[3]; [6]
  No fatal or non-fatal recurrent DVT, symptomatic PE or unexplained death (composite clinical outcome): 125 (100.0) n (%)
  Yes: fatal or non-fatal recurrent DVT, symptomatic PE or unexplained death (composite clinical outcome): 0 (0.0) n (%)
[3]; [7]
  No fatal or non-fatal recurrent DVT, symptomatic PE or unexplained death (composite clinical outcome): 126 (98.4) n (%)
  Yes: fatal or non-fatal recurrent DVT, symptomatic PE or unexplained death (composite clinical outcome): 2 (1.6) n (%)
[3]; [8]
  No fatal or non-fatal recurrent DVT, symptomatic PE or unexplained death (composite clinical outcome): 118 (100.0) n (%)
  Yes: fatal or non-fatal recurrent DVT, symptomatic PE or unexplained death (composite clinical outcome): 0 (0.0) n (%)
[3]; [9]
  No fatal or non-fatal recurrent DVT, symptomatic PE or unexplained death (composite clinical outcome): 116 (97.5) n (%)
  Yes: fatal or non-fatal recurrent DVT, symptomatic PE or unexplained death (composite clinical outcome): 3 (2.5) n (%)
[4]; 2.5 mg SanOrg34006
  plasma concentrations relative to levels associated with an increased bleeding risk: remained below the levels associated with an increased bleeding risk
[4]; 2.5 mg dose group
  share of patient population with plasma levels 'too low' in terms of the ACCP guidelines: 75%
[4]; 2.5-10 mg once weekly
  dose proportionality of pharmacokinetics: Dose-proportional
[4]; [10]
  AUC values at steady state relative to first administration: twice as high
  trough concentrations at steady state relative to first administration: three times as high
[4]; dose of 2.5 mg, once a week
  anti-Xa activity corresponding with plasma trough levels: 0.09-0.26 anti-Xa U/mL
  plasma trough levels (Cmin): 126 ± 63 ng/mL
[4]; once-weekly administration
  time at which steady state had been reached: Week 12
[5]; [6]
  Deterioration, overall change in thrombotic burden (2-point scale): 6 (4.8) n (%)
  Deterioration, overall change in thrombotic burden (3-point scale): 6 (4.8) n (%)
  No Deterioration, overall change in thrombotic burden (2-point scale): 119 (95.2) n (%)
  No Relevant Change, overall change in thrombotic burden (3-point scale): 87 (69.6) n (%)
  Normalization, overall change in thrombotic burden (3-point scale): 32 (25.6) n (%)
[5]; [7]
  Deterioration, overall change in thrombotic burden (2-point scale): 8 (6.3) n (%)
  Deterioration, overall change in thrombotic burden (3-point scale): 8 (6.3) n (%)
  No Deterioration, overall change in thrombotic burden (2-point scale): 120 (93.8) n (%)
  No Relevant Change, overall change in thrombotic burden (3-point scale): 89 (69.5) n (%)
  Normalization, overall change in thrombotic burden (3-point scale): 31 (24.2) n (%)
[5]; [8]
  Deterioration, overall change in thrombotic burden (2-point scale): 8 (6.8) n (%)
  Deterioration, overall change in thrombotic burden (3-point scale): 8 (6.8) n (%)
  No Deterioration, overall change in thrombotic burden (2-point scale): 110 (93.2) n (%)
  No Relevant Change, overall change in thrombotic burden (3-point scale): 81 (68.6) n (%)
  Normalization, overall change in thrombotic burden (3-point scale): 29 (24.6) n (%)
[5]; [9]
  Deterioration, overall change in thrombotic burden (2-point scale): 15 (12.6) n (%)
  Deterioration, overall change in thrombotic burden (3-point scale): 15 (12.6) n (%)
  No Deterioration, overall change in thrombotic burden (2-point scale): 104 (87.4) n (%)
  No Relevant Change, overall change in thrombotic burden (3-point scale): 74 (62.2) n (%)
  Normalization, overall change in thrombotic burden (3-point scale): 30 (25.2) n (%)
[5]; SanOrg34006 doses tested
  efficacy compared with warfarin: No differences in efficacy
[5]; tested doses 2.5-10 mg
  dose-response relationship for primary and secondary efficacy endpoints: No statistically significant dose-response relationship

## CC(=O)CC(c1ccccc1)c1c(O)c2ccccc2oc1=O (centres unmarked) [Warfarin, warfarin, reference compound]
[1]; [11]
  Any Bleeding during randomized treatment: 11 (8.3) n (%)
  Major Bleeding during randomized treatment: 1 (0.8) n (%)
  No Major Bleeding during randomized treatment: 131 (99.2) n (%)
[2]; all SanOrg34006 doses, warfarin
  tolerability in terms of adverse events (other than bleeding events), laboratory parameters, and vital signs: generally well tolerated
[3]; [12]
  Yes: fatal or non-fatal recurrent DVT, symptomatic PE or unexplained death (composite clinical outcome): 2 (1.6) n (%)
[5]; [12]
  Deterioration, overall change in thrombotic burden (2-point scale): 9 (7.3) n (%)
  Deterioration, overall change in thrombotic burden (3-point scale): 9 (7.3) n (%)
  No Deterioration, overall change in thrombotic burden (2-point scale): 115 (92.7) n (%)
  No Relevant Change, overall change in thrombotic burden (3-point scale): 84 (67.7) n (%)
  Normalization, overall change in thrombotic burden (3-point scale): 31 (25.0) n (%)
